Key:
PAK4 = target: T1, PAK4 (Homo sapiens, UniProt O96013); assay: HotSpot kinase assay (Reaction Biology Corp.), PAK4 enzyme inhibition; type: biochemical; conditions: ATP 10 μM
T1 construct: purchased Reaction Biology Corporation (Malvern, PA, USA)
Protocol: To examine the enzyme activity, HotSpot kinase assay was performed at Reaction Biology Corporation (Malvern, PA, USA). The kinase and substrate pairs were prepared in reaction buffer: 20 mM HEPES at pH 7.5, 10 mM MgCl2, 1 mM EGTA, 0.02% Brij 35, 0.02 mg/mL BSA, 0.1 mM Na3VO4, 2 mM DTT, and 1% DMSO. Compounds were added into the kinase reaction mixture and incubated for 20 min. Then, ^32 P-ATP was introduced to the mixture to initiate the reaction carried out at 10 μM of ATP concentration. After 2 h at room temperature, the mixture was spotted onto P81 ion exchange paper and kinase activity was then evaluated utilising the filter-binding method. Compounds were tested for single dose enzyme inhibition at a concentration of 20 μM. For the control compound, staurosporine was tested in a 10-dose IC50 mode. To determine the IC50 value, the compounds were tested for 10-doses with 3-fold serial dilution starting at 100 μM.
Synthesised compounds were evaluated for their in vitro PAK4 enzyme inhibitory activities. In vitro kinase assays were performed using HotSpot kinase assays for relative enzyme inhibitory activity at a single concentration (20 μM) and IC50 assessment at an ATP concentration of 10 μM (Figure 1(B)). […] For the allosteric pocket binder, cyclohexyl group (SPA7012) was preferable to the smaller dimethyl (SPA7011) or hydroxymethyl group (SPA7013), and the aromatic ring (SPA7014) reduced activity compared to the saturated ring (SPA7012). In vitro enzyme IC50 values appeared in the order of SPA7012, SPA7017, and SPA7016. […] Molecular docking analysis was performed on the human PAK4 catalytic domain structure complexed with GNE-2861 (PDB code: 4O0V). The binding pose of SPA7012 overlapped well with the crystal structure of GNE-2861, with the allosteric binder properly positioned in the specific back pocket. The oxygen atom in the tertiary alcohol of the hydrophobic allosteric binder formed hydrogen bonds with the backbone of Phe459 and the side chain of Glu366 (Figure 1(D)). The amine group and nitrogen atom in the pyrazolo[3,4-d]pyrimidine core scaffold also formed hydrogen bonds with Lue398 at the hinge region. Finally, SPA7012 was decided as a lead compound for further examination with satisfactory potency and subtype selectivity.

primary hepatocytes [1] = assay: MTT assay for cell viability; type: cell-based, mouse; conditions: SPA7012 at a concentration of less than 1 μM
Protocol: (§1) Primary hepatocytes were prepared from 8 to 10 week old C57BL/6 male mice by perfusion. […] Hepatocytes were resuspended in DMEM/F12 supplemented with 10% FBS, 10 units/mL penicillin, 10 μg/mL streptomycin, and 10 nM dexamethasone mixed with 42% Percoll, and then centrifuged for 5 min at 1,300 rpm. The cells were plated at 1 × 10^6 cells/well in 6-well culture dishes.
Cell viability was determined by analysing the reduction of 3–(4, 5-dimethylthiazol-2-yl)-2, 5-diphenyltetrazolium bromide (MTT) to formazan.

primary hepatocytes [2] = assay: Hypoxia-reoxygenation (H/R) injury in primary hepatocytes; type: cell-based, mouse
Protocol: as §1
Primary hepatocytes were incubated at 37 °C in anaerobic jars (Oxoid, Basingstoke, Hampshire, UK) with oxygen-absorbing packs (AnaeroGen, Oxoid). […] Following various periods of hypoxia, reoxygenation of cells was initiated by opening the chamber and replacing the hypoxic medium with an oxygenated medium.
H/R-induced apoptosis was monitored using the Annexin V-propidium iodide (PI) double-staining kit (BD Biosciences, San Jose, CA, USA) according to the instructions of the manufacturer, allowing quantification by flow cytometry (BD Biosciences). The proportion of apoptotic cells was defined as the percentage of Annexin V-positive cells […].
Intracellular ROS levels were measured using 2′,7′-dichlorofluorescein diacetate (DCF-DA), which converts to fluorescent […] in cells when exposed to ROS. Briefly, after H/R injury, hepatocytes were loaded with 20 μM DCF-DA (Invitrogen) for 10 min at 37 °C. The DCF fluorescence intensity was measured by fluorescence spectrophotometry with 485 nm excitation and 538 nm emission and expressed as a percentage relative to control.
Alanine aminotransferase (ALT) and aspartate aminotransferase (AST) in serum (Asan Pharm, Seoul, Korea), glutathione (GSH, Arbour Assays, Ann Arbour, MI, USA), malondialdehyde (MDA, ab118970, Abcam, Cambridge, UK) in liver tissues, and lactate dehydrogenase (LDH, Biovision, Milpitas, CA, USA) in culture medium were analysed using specific kits. Serum levels of IL-1β, IL-6, TNF-α, and CCL-2 were detected using ELISA kits (all from Invitrogen).
Total RNA was extracted from frozen liver tissues or primary hepatocytes using TRIzol reagent (Invitrogen). RNA was treated with isopropanol, dried using 70% ethanol, and dissolved in diethyl pyrocarbonate-treated distilled water. First-strand cDNA was generated using the random hexamer primer provided in the first-strand cDNA synthesis kit (Applied Biosystems, Foster City, CA, USA). Specific primers were designed using PrimerBank (https://pga.mgh.harvard.edu/primerbank, Table 1). qPCR reactions were performed in a final volume of 10μ L containing 10 ng reverse-transcribed total RNA, 200 nM forward and reverse primers, and PCR master mixture. qPCR was performed in 384-well plates using an ABI Prism™ 7900HT Sequence Detection System (Applied Biosystems).
Nuclear and cytoplasmic fractions were prepared using the NE-PER Nuclear and Cytoplasmic Extraction kit (Thermo Fisher Scientific, Waltham, MA, USA). Tissue homogenates or cell lysates (15 μg) were separated by 6–14% SDS-PAGE and transferred to PVDF membranes. After blocking with 5% skim milk, blots were probed with primary antibodies against: PAK4 (G222), p-PAK4 (S474), p-IKKβ (S176/180), p-IκBα (S32), p-p65 (S536), cleaved caspase-3 (Asp175), Bax (Cell Signalling Technology, Beverly, MA, USA), GAPDH (A531), lamin B1(L75), Bcl2(P65), NQO1 (F252) (Bioworld Technology, St Louis Park, MN, USA), NF-κB p65 (C-20), IKBα (H-4), IKKβ (10A9B6) (Santa Cruz Biotechnology, Dallas, TX, USA), Nrf2 (Proteintech, Rosemont, IL, USA), HO-1 (Enzo Life Sciences, Farmingdale, New York, USA), and p-Thr (Merck KGaA, Darmstadt, Germany). For co-immunoprecipitations, 600 μg protein was incubated with anti-Nrf2 antibodies (Proteintech, Sankt Leon-Rot, Germany) overnight at 4 °C followed by protein G agarose for 2 h at 4 °C. Blots were probed with antibodies against PAK4, Nrf2, or p-Thr. Immunoreactive bands were detected with a Las-4000 imager (GE Healthcare Life Science, Pittsburgh, PA, USA).

T1 sequence (O96013 whole entry): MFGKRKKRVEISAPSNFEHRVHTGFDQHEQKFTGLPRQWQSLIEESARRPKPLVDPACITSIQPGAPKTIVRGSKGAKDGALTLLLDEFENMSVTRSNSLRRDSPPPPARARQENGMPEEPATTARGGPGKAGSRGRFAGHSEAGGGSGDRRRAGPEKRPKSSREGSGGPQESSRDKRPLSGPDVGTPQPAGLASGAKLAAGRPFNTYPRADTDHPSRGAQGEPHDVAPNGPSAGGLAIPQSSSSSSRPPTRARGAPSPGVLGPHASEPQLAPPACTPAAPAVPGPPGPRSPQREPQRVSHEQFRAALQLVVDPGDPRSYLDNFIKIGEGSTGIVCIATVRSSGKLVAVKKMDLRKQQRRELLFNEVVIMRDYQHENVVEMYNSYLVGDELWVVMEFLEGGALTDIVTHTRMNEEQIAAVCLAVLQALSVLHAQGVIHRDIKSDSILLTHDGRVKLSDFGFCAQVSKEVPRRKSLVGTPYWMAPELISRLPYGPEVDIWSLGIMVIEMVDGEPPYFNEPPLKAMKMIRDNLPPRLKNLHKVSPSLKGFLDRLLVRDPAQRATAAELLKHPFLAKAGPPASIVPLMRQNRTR

## Cc1nn(-c2cccc(C#CC3(O)CCCCC3)c2)c2ncnc(N)c12 [Compound 14b, 3-(4-Amino-3-methylpyrazolo[3,4-d]pyrimidin-1-yl)phenylethynylcyclohexan-1-ol]
PAK4; 10-dose, 3-fold serial dilution starting at 100 μM
  IC50: 0.77 µM
PAK4; relative percentage inhibition at 20 μM of compounds with staurosporine, read-out: PAK4 enzyme inhibition % inhibitory activity
  inhibition at 20 µM: 97%
Primary hepatocytes [1]
  Effect on cell viability (MTT): little effect
Primary hepatocytes [2]; 1 μM
  H/R-induced oxidative stress (DCF fluorescence, MDA, GSH): decrease
Primary hepatocytes [2]; 1 μM before reoxygenation, 12 h reoxygenation, vs only H/R
  Cell damage (LDH release) after H/R: markedly decreased
Primary hepatocytes [2]; 1 μM, Annexin-V staining and Western blotting
  H/R-induced apoptotic cell death: decrease
Primary hepatocytes [2]; 1 μM, H/R, vs control group
  Phosphorylation levels of IKKβ and p65 in primary hepatocytes: decreased
  Protein levels of IκBα in primary hepatocytes: increased
Primary hepatocytes [2]; 1 μM, culture media protein and hepatocyte mRNA
  H/R-induced cytokine release: decrease

Source: article PMC9354638, “Targeting p21-activated kinase 4 (PAK4) with pyrazolo[3,4-d]pyrimidine derivative SPA7012 attenuates hepatic ischaemia-reperfusion injury in mice” (Journal of Enzyme Inhibition and Medicinal Chemistry, 2022)
